Patent US20260108527A1, “POLO LIKE KINASE 4 INHIBITORS” (ORIC Pharmaceuticals, Inc., priority 2022, published 2026)

Assays:
[1] = target: T1, human recombinant Aurora B (Homo sapiens, UniProt Q96GD4); experiment: Aurora B Kinase Biochemical Assay (ADP-Glo); details: selectivity ratio; Aurora B 10 nM, 114 μM ATP
T1 construct: purchased ThermoFisher PR9210B
Experimental: Activity of human recombinant Aurora B (ThermoFisher, cat #PR9210B) was measured by quantification of adenosine diphosphate (ADP) using the ADP-Glo Kinase Assay Kit (Promega, cat #V9102). Test compounds were solubilized in dimethyl sulfoxide (DMSO) and dispensed into 384-well white polystyrene nonbinding plates (Greiner, cat #781094) using the Echo acoustic dispenser (Labcyte Inc.) in a 11-point 3-fold titration in duplicates. 5 μL of 20 nM Aurora B in assay buffer (50 mM HEPES, pH 7.5, 0.01% Brij-35, 0.01% BSA, 10 mM MgCl2, 1 mM EGTA, 1 mM DTT) was added to the plates. Test compounds and Aurora B were incubated for 15 minutes at room temperature (RT). Then 5 μL of a 228 μM adenosine triphosphate (ATP) (Promega, cat #V915B) and 9.3 μM Myelin Basic Protein (MBP) (SignalChem, cat #M42-51N) substrate solution in assay buffer was added and the reaction mixture was incubated for 2 hours at RT. The final concentration of Aurora b, ATP and MBP in the reactions were 10 nM, 114 μM and 4.7 μM, respectively. Reactions were stopped and the remaining ATP depleted by adding 10 μL of ADP-Glo reagent (Promega, cat #V912B) and incubating for 40 minutes at RT. The simultaneous conversion of the remaining ADP to ATP and measurement of the newly synthesized ATP was achieved by addition of 20 μL Kinase Detection reagent (Promega, cat #V9141B), incubation for 30 min at RT, and luminescence detection using the EnVision plate reader (PerkinElmer). Reactions lacking Aurora B were used as […]. Reactions containing DMSO alone were used as […]. The IC50 values reported in Table 2 were determined using four parameter non-linear regression curve fit.

human recombinant PLK4 = target: T2, human recombinant PLK4 (Homo sapiens, UniProt O00444); experiment: PLK4 Biochemical Assay (ADP-Glo); details: 0.5 nM PLK4, 8.0 μM ATP, 4.7 μM MBP, 6 hours at RT
T2 construct: purchased ThermoFisher PV6396
T2 sequence (O00444 1-970): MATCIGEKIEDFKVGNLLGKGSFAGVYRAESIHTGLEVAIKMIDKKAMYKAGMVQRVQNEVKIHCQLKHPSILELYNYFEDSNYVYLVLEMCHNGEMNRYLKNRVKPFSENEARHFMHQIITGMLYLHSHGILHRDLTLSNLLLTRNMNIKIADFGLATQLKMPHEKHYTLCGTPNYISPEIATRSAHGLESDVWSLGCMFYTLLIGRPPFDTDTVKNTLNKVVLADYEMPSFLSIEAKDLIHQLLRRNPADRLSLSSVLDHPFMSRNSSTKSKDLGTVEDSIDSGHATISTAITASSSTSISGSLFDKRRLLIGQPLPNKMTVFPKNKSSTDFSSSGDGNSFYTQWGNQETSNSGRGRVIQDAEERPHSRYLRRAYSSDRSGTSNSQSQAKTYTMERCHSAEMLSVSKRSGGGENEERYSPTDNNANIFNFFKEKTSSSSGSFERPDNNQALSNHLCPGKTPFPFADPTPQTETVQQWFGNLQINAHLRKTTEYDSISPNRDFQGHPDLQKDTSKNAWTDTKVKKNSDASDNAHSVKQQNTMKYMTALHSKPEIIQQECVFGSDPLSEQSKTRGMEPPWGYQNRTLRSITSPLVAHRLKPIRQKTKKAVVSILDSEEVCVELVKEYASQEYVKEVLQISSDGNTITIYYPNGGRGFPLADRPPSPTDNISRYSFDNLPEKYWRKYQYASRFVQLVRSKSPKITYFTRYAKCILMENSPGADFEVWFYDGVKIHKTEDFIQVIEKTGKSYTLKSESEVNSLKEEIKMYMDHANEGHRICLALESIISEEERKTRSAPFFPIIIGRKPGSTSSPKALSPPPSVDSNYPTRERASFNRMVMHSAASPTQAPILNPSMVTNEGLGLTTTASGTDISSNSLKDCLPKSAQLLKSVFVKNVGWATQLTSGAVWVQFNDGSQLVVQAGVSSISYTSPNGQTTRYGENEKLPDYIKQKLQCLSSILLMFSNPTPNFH
Experimental: Activity of human recombinant PLK4 (ThermoFisher, cat #PV6396) was measured by quantification of adenosine diphosphate (ADP) using the ADP-Glo Kinase Assay Kit (Promega, cat #V9102). […] 5 μL of 1.0 nM PLK4 protein in assay buffer (50 mM HEPES, pH 7.5, 0.01% Brij-35, 0.01% BSA, 10 mM MgCl2, 1 mM EGTA, 1 mM DTT) was added to the plates. Test compounds and PLK4 were incubated for 15 minutes at room temperature (RT). […] Reactions were stopped and the remaining ATP depleted by adding 10 μL of ADP-Glo reagent (Promega, cat #V912B) and incubating for 40 minutes at RT. The simultaneous conversion of the remaining ADP to ATP and measurement of the newly synthesized ATP was achieved by addition of 20 μL Kinase Detection reagent (Promega, cat #V914B), incubation for 30 min at RT, and luminescence detection using the EnVision plate reader (PerkinElmer). […] The IC50 values reported in Table 2 were determined using four parameter non-linear regression curve fit.

CHP134 = CHP134 CellTiter-Glo (CTG) Assay; type: cell-based; details: Homo sapiens, CHP-134, 120 h; viable cells by CellTiter-Glo after 5 days
Experimental: […] cells (DSMZ-German Collection of Microorganisms and Cell Cultures, Braunschweig Germany) were cultured in RPMI 1640 supplemented with 10% fetal bovine serum, penicillin (100 U/ml), 1% L-Glutamine and streptomycin ([…]). Cells were seeded (200 cells/well) in 384-well plates for 16 hours. On day two, nine serial 1:3 compound dilutions were made in DMSO in a 96-well plate. The compounds were then further diluted into growth media using a BRAVO robot (Agilent, Santa Clara, CA). The diluted compounds were then added to quadruplicate wells in the 384-well cell plate and incubated at 37° C. and 5% CO2. After 5 days, relative numbers of viable cells were measured by luminescence using CellTiter-Glo® (Promega) according to the manufacturer's instructions and read on a SPARK Multimode Microplate Reader (Tecan, Mannedorf Switzerland). The IC50 calculations for the values reported in Table 2 were carried out using Prism 6.0 software (GraphPad, San Diego).

T1 sequence (Q96GD4 whole entry): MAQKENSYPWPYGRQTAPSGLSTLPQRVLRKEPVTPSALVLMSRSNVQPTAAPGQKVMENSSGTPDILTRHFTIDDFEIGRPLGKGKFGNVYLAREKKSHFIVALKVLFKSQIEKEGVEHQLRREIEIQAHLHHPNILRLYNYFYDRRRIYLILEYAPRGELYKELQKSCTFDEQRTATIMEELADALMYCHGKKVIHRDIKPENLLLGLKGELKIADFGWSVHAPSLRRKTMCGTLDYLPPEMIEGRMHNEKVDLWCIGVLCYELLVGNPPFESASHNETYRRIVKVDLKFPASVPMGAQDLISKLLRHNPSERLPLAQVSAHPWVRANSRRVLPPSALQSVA

SMILES	[Aurora B IC50 (nM)]/[PLK4 IC50 (nM)] [1]	IC50 (human recombinant PLK4)	IC50 (CHP134)
CCOc1cc(-c2cn(C)cn2)ccc1Nc1n[nH]c2cc([C@@H]3C[C@@]34C(=O)Nc3ccc(OC)cc34)ccc12 [Example 29, (1R,2S)-2-{3-[2-ethoxy-4-(1-methyl-1H-imidazol-4-yl)anilino]-1H-indazol-6-yl}-5′-methoxyspiro[cyclopropane-1,3′-indol]-2′(1′H)-one]	211.2020	1.95 nM	466 nM
CCOc1cc(-c2cnccn2)ccc1Nc1n[nH]c2cc([C@@H]3C[C@@]34C(=O)Nc3ccc(OC)cc34)ccc12 [Example 7, (1R,2S)-2-{3-[2-ethoxy-4-(pyrazin-2-yl)anilino]-1H-indazol-6-yl}-5′-methoxyspiro[cyclopropane-1,3′-indol]-2′(1′H)-one]	702.6392	1.71 nM	166 nM
COc1ccc2c(c1)[C@]1(C[C@H]1c1ccc3c(Nc4cc5c(cc4OC)S(=O)(=O)C=C5)n[nH]c3c1)C(=O)N2 [Example 6, 6-methoxy-5-({6-[(1R,2S)-5′-methoxy-2′-oxo-1′,2′-dihydrospiro[cyclopropane-1,3′-indol]-2-yl]-1H-indazol-3-yl}amino)-1H-1-benzothiophene-1,1-dione]	427.6412	0.952 nM	39.4 nM
COc1ccc2c(c1)[C@]1(C[C@H]1c1ccc3c(Nc4cc(-c5cnn(C)c5)cnc4OC)n[nH]c3c1)C(=O)N2 [Example 26, (1R,2S)-5′-methoxy-2-(3-{[2-methoxy-5-(1-methyl-1H-pyrazol-4-yl)pyridin-3-yl]amino}-1H-indazol-6-yl)spiro[cyclopropane-1,3′-indol]-2′(1′H)-one]	921.6946	0.84 nM	171 nM
COc1ccc2c(c1)[C@]1(C[C@H]1c1ccc3c(Nc4ccc(-c5nnn(C)n5)cc4OC)n[nH]c3c1)C(=O)N2 [Example 17, (1R,2S)-5′-methoxy-2-{3-[2-methoxy-4-(2-methyl-2H-tetrazol-5-yl)anilino]-1H-indazol-6-yl}spiro[cyclopropane-1,3′-indol]-2′(1′H)-one]	190	2 nM	370 nM

Second part, led by results:

[Aurora B IC50 (nM)]/[PLK4 IC50 (nM)] [1]	IC50 (human recombinant PLK4)	SMILES	IC50 (CHP134)
8707.7562	0.722 nM	CCOc1ncc(-c2nccs2)cc1Nc1n[nH]c2cc([C@@H]3C[C@@]34C(=O)Nc3ccc(OC)cc34)ccc12 [Example 41, (1R,2S)-2-(3-{[2-ethoxy-5-(1,3-thiazol-2-yl)pyridin-3-yl]amino}-1H-indazol-6-yl)-5′-methoxyspiro[cyclopropane-1,3′-indol]-2′(1′H)-one]	131 nM
429.3981	0.259 nM	COc1ccc2c(c1)[C@]1(C[C@H]1c1ccc3c(Nc4nc(-c5cnn(C)c5)ncc4OC)n[nH]c3c1)C(=O)N2 [Example 31, (1R,2S)-5′-methoxy-2-(3-{[5-methoxy-2-(1-methyl-1H-pyrazol-4-yl)pyrimidin-4-yl]amino}-1H-indazol-6-yl)spiro[cyclopropane-1,3′-indol]-2′(1′H)-one]	135 nM
8798.5611	0.139 nM	CCOc1cnc(C#CC(C)(C)O)nc1Nc1n[nH]c2cc([C@@H]3C[C@@]34C(=O)Nc3ccc(OC)cc34)ccc12 [Example 45, (1R,2S)-2-(3-((5-ethoxy-2-(3-hydroxy-3-methylbut-1-yn-1-yl)pyrimidin-4-yl)amino)-1H-indazol-6-yl)-5′-methoxyspiro[cyclopropane-1,3′-indolin]-2′-one]	890 nM
764.1	1.93 nM	COc1ccc2c(c1)[C@]1(C[C@H]1c1ccc3c(Nc4cc(-c5cnn(CC(F)F)c5)ccc4OC)n[nH]c3c1)C(=O)N2 [Example 39, (1R,2S)-2-(3-{5-[1-(2,2-difluoroethyl)-1H-pyrazol-4-yl]-2-methoxyanilino}-1H-indazol-6-yl)-5′-methoxyspiro[cyclopropane-1,3′-indol]-2′(1′H)-one]	202 nM
